# Test results published in US10233328B2, “Sol-gel based matrix” (KØBENHAVNS UNIVERSITET, priority 2013, dated 2019).
# How the values were obtained:
# [1] = pH titration of sensor spots (pKa of the sensor); assay type: physicochemical; conditions: dye in ETEOS-GPTMS matrix, Table 2
# Procedure: To perform titrations rapidly a set-up employing an epi-fluorescence microscopy equipped with a halogen light source and an Ocean Optics spectrometer for detection. The sensor spot was attached to a homemade holder, which kept the spot in place in a large chamber filled with water, where pH was externally monitored with a pH meter. Alternatively the sensor spot was affixed on the wall of a cuvette and the titration was performed in a Perkin Elmer LS50B, controlling the pH between measurements.
# The performance of the sensors is shown as titration curves in FIG. 4. It is clear that a pH-dependent sensor action is achieved for these two sensor systems.
# [2] = Leakage of dye from ETEOS-GPTMS matrix into surrounding PBS (physical stability); assay type: physicochemical; conditions: for Leaking: fluorescence Intensity (a.u.): PBS pH 7.0 surrounding coated glass slide
# Procedure: The photostability was followed by constant illumination of the sensor spot with wavelength selected light from a xenon lamp. The physical stability was tested by immersing the sensor spot in low or high pH aqueous solution, and monitoring the fluorescence from the solution.
# Table 2. Leaking of 5(6)-carboxyfluorescein (CF), DMQA-2, DAOTA-1, and 6-stearamido-fluorescein (AF18) from the ETEOS-GPTMS matrix given as fluorescence intensity measured from a PBS solution at pH 7 surrounding a glass slide coated with ETEOS-GPTMS-dye matrix using maximum sized slit widths at the emission and excitation sites of the spectrometer.
# All the leakage data is compiled in table 2.
Compound,pKa [1],Leakage from ETEOS-GPTMS matrix (in words) ([2]; PBS pH 7.0),"Leaking: fluorescence Intensity (a.u.) ([2]; leaking period 2 h, half the slit widths used for DMQA-2 and DAOTA-1)",Leaking: fluorescence Intensity (a.u.) ([2]; leaking period 4 d)
5(6)-carboxyfluorescein [CF],6.5,extensive leakage,>>800 a.u.,
"CCCCCCCCCCCCCCCCCC(=O)Nc1ccc2c(c1)C1(OC2=O)c2ccc(O)cc2Oc2cc(O)ccc21 [AFC18, 6-stearamido-fluorescein]",6.5,,,100
